“And” between values parts separate entries of the source, which are not always exact repeats. Identical values can stand only once.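 These data come from cells grown in 96-well plates and exposed to compound for 48 hours at five concentrations. The concentration for full growth arrest is given as TGI.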
How the values were obtained:
Experiment in all cases: DTP human tumour cell line panel, 48 h
[1] = test system: EKVX NSCLC
[2] = test system: UACC-257 melanoma
[3] = test system: MALME-3M melanoma
[4] = test system: SK-MEL-28 melanoma
[5] = test system: ACHN renal
[6] = test system: COLO 205 colon
[7] = test system: PC-3 prostate
[8] = test system: HCT-15 colon
[9] = test system: SK-MEL-5 melanoma
[10] = test system: RPMI-8226 leukemia
[11] = test system: SF-295 CNS
[12] = test system: K-562 leukemia
[13] = test system: HCT-116 colon
[14] = test system: MDA-MB-231 breast
[15] = test system: MDA-MB-435
[16] = test system: A549 NSCLC
[17] = test system: SW-620 colon
[18] = test system: DU-145 prostate
[19] = test system: T-47D breast
[20] = test system: MCF7 breast

SMILES | TGI [1] [µM] | TGI [2] [µM] | TGI [3] [µM] | TGI [4] [µM] | TGI [5] [µM] | TGI [6] [µM] | TGI [7] [µM] | TGI [8] [µM] | TGI [9] [µM] | TGI [10] [µM] | TGI [11] [µM] | TGI [12] [µM] | TGI [13] [µM] | TGI [14] [µM] | TGI [15] | TGI [16] [µM] | TGI [17] [µM] | TGI [18] [µM] | TGI [19] [µM] | TGI [20] [µM]
NC(N)=N/N=C\c1c(-c2cccc([N+](=O)[O-])c2)nc2sccn12 | 56.2 | 48.8 | 51.4 | 4.37 | 5.68 | 14.5 | 29 | > 100 | 36.1 | > 100 | 5.86 | > 100 | > 100 | 5.01 | 5.16 µM | 51.6 | 5.43 | 20.8 | 4.18 | –
O=C(O)CN1CCSc2ccccc2CN(CC(=O)O)CCSc2ccccc2C1 | > 100 | > 100 | > 100 | > 100 | > 100 | > 100 | – | > 100 | > 100 | > 100 | > 100 | > 100 | > 100 | – | – | > 100 | > 100 | – | – | –
O=C(CC(NC(=O)OCc1ccccc1)C(=O)NC1Cc2ccccc2C1=O)OCc1ccccc1 (stereo unspecified) | > 100 | > 100 | > 100 | > 100 | > 100 | – | > 100 | > 100 | > 100 | > 100 | > 100 | > 100 | – | – | > 100 µM | > 100 | > 100 | > 100 | – | > 100
COC(=O)c1c(O)c(C#N)c2[nH]c3ccccc3n2c1=O | > 100 | > 100 | > 100 | – | > 100 | > 100 | > 100 | > 100 | > 100 | > 100 | > 100 | > 100 | > 100 | > 100 | > 100 µM | > 100 | > 100 | > 100 | – | > 100
N/N=c1/nc2n(c3ncccc13)C=CNN2 | > 100 | > 100 | > 100 | > 100 | > 100 | > 100 | – | > 100 | > 100 | > 100 | > 100 | > 100 | > 100 | – | – | > 100 | > 100 | – | – | –
COC(=O)c1cc2ccc(O)c(O)c2cn1 | 38.4 | 29.6 | 27.5 | 35.6 | 43.6 | 33.1 | 56.4 | 40.4 | 28.2 | > 100 | 33.6 | 8.16 | 29.2 | 25.2 | 3.25 µM and 3.21 µM | 63.1 | 32.4 | > 100 | – | 8.1
CCN(CC)C(=O)CCn1ccc(=O)[nH]c1=O | > 100 | – | > 100 | > 100 | > 100 | > 100 | – | > 100 | > 100 | > 100 | > 100 | > 100 | > 100 | – | – | > 100 | > 100 | – | – | –
O=C(Cc1ccccc1)NN1C(=O)C(Cl)C1c1ccc(Cl)cc1 (stereo unspecified) | > 100 | > 100 | > 100 | > 100 | > 100 | > 100 | – | > 100 | > 100 | > 100 | > 100 | > 100 | > 100 | – | – | > 100 | > 100 | – | – | –
COCCN(C(=O)c1ccccc1)C1CCC2(SCCS2)c2[nH]c3ccccc3c21 (stereo unspecified) | > 100 | > 100 | > 100 | > 100 | > 100 | > 100 | 59.3 | > 100 | > 100 | 61.8 | > 100 | > 100 | > 100 | > 100 | 69.6 µM | 68.2 | > 100 | > 100 | – | > 100
COc1cc2c(cc1OS(C)(=O)=O)N=C[C@@H]1CCCN1C2=O | > 100 | > 100 | > 100 | > 100 | > 100 | > 100 | – | > 100 | > 100 | > 100 | > 100 | – | > 100 | > 100 | > 100 µM | > 100 | > 100 | > 100 | > 100 | > 100
Brc1ccc(C2=NCSC(c3ccc(Br)cc3)=N2)cc1 | 38.5 | 71 | > 100 | > 100 | > 100 | > 100 | 56.7 | > 100 | 64.5 | 63.5 | > 100 | > 100 | 59.2 | > 100 | > 100 µM | > 100 | > 100 | – | – | > 100
O=C(c1ccc2ccccc2c1)C1(I)S(=O)(=O)OCCOS1(=O)=O | > 100 | – | > 100 | > 100 | > 100 | > 100 | > 100 | > 100 | > 100 | > 100 | 0.0298 | > 100 | > 100 | > 100 | > 100 µM | > 100 | – | > 100 | – | > 100
CC(=O)N1C=Cc2c(c(C)c3c([nH]c4ccccc43)c2C)C1 | 8.13 | 29.6 | 23.1 | 31.8 | 11.3 | 19.1 | 19.6 | 4.99 | 33.5 | 50.6 | 23.8 | > 100 | 3.21 | 9.34 | 27.4 µM | 24.2 | 7.47 | 26.6 | – | 18.5
CN(C)CCNc1ccc(NCC[N+](C)(C)Cc2ccc([N+](=O)[O-])cc2)c2c1C(=O)c1c(O)ccc(O)c1C2=O | > 100 | – | – | > 100 | – | > 100 | > 100 | > 100 | 47.5 | > 100 | – | > 100 | > 100 | > 100 | > 100 µM | – | > 100 | > 100 | > 100 | –
C=C(Br)C(C)(Cl)CCC(Br)C(C)(C)Br (stereo unspecified) | – | > 100 | > 100 | – | > 100 | > 100 | – | > 100 | > 100 | 67 | > 100 | 80.9 | > 100 | – | – | > 100 | > 100 | – | – | –
CC1(OCc2ccccc2)C(=O)N2C1NCC2(C)C (stereo unspecified) | > 100 | > 100 | > 100 | > 100 | > 100 | > 100 | – | > 100 | > 100 | > 100 | > 100 | > 100 | > 100 | – | – | > 100 | > 100 | – | – | –
N#CC(C#N)=c1c(=O)c2c3ccccc3cc3cccc1c32 | – | > 100 | – | > 100 | > 100 | > 100 | > 100 | > 100 | > 100 | > 100 | – | – | > 100 | > 100 | > 100 µM | > 100 | > 100 | > 100 | > 100 | –
Cc1ccc(S(=O)(=O)n2cc(/C=C/C#N)c(-c3cn(S(=O)(=O)c4ccc(C)cc4)cc3-c3cn(S(=O)(=O)c4ccc(C)cc4)cc3/C=C/C#N)c2)cc1 | > 100 | > 100 | > 100 | – | > 100 | > 100 | > 100 | > 100 | > 100 | > 100 | > 100 | > 100 | > 100 | > 100 | > 100 µM | – | – | > 100 | > 100 | –
CC[C@@H]1/C=C/C=C/C[C@H](C)[C@@H](O)[C@@H](C)C(=O)[C@H](C)[C@@H](O)[C@H](C)C(=O)[C@H](C)[C@@H](O)[C@H](C)/C=C/C(=O)O[C@H]2[C@@H](C)[C@@H](CC1)O[C@@]1(CC[C@@H](C)[C@@H](CC(C)O)O1)[C@@H]2C (stereo partly specified) | 7.44 | 1.82 | > 24 | > 25 | 16.7 | 4.62 | 12.3 | > 25 | 3.38 | 14.7 | – | > 25 | > 25 | > 17.4 | > 18.3 µM | > 16.9 | > 25 | > 11.8 | – | 7.49
O=C(CNc1ccccc1[N+](=O)[O-])Nn1cnc2ccc(S(=O)(=O)Nc3ccccc3[N+](=O)[O-])cc2c1=O | > 100 | > 100 | > 100 | > 100 | > 100 | > 100 | > 100 | > 100 | – | > 100 | > 100 | > 100 | > 100 | > 100 | > 100 µM | > 100 | > 100 | > 100 | – | > 100
CC(C)OC(=O)NCCn1cc(-c2ccccc2)nn1 | > 100 | > 100 | > 100 | > 100 | > 100 | > 100 | > 100 | > 100 | > 100 | > 100 | > 100 | > 100 | > 100 | > 100 | > 100 µM | > 100 | – | > 100 | – | > 100
CN(C)c1cccc(-c2cc(=S)c3cc4c(cc3[nH]2)OCO4)c1 | > 100 | > 100 | > 100 | > 100 | > 100 | > 100 | > 100 | > 100 | > 100 | > 100 | > 100 | > 100 | > 100 | > 100 | – | > 100 | > 100 | > 100 | > 100 | > 100
CC(C)[Si](OC12CCC(CC1O)CC2CO)(C(C)C)C(C)C (stereo unspecified) | – | 26.6 | – | 40.8 | 27.2 | 42.2 | 24.1 | 27.1 | 47.6 | 38.1 | 24.6 | > 100 | 20.7 | 45.6 | 31.7 µM | 22.1 | 52.4 | 35.5 | 25.7 | 24.4
COc1ccc(N2C(=O)c3cc([N+](=O)[O-])cnc3S2(=O)=O)cc1 | > 100 | – | > 100 | > 100 | > 100 | > 100 | > 100 | > 100 | – | > 100 | > 100 | > 100 | > 100 | > 100 | > 100 µM | > 100 | > 100 | > 100 | – | –
COc1ccc2c(O)c(Oc3ccc(Cl)cc3)c(=O)oc2c1 | > 100 | > 100 | > 100 | > 100 | > 100 | – | > 100 | > 100 | > 100 | > 100 | > 100 | > 100 | > 100 | > 100 | – | > 100 | > 100 | > 100 | > 100 | > 100
O=C1CSC(c2c[nH]c3ccccc23)N1c1cccc(Cl)c1 (stereo unspecified) | > 100 | > 100 | – | > 100 | > 100 | > 100 | – | > 100 | > 100 | 54.7 | > 100 | > 100 | > 100 | 80.2 | > 100 µM | > 100 | > 100 | > 100 | > 100 | > 100
O=C1c2ccccc2C(=O)N1/N=C1/SC(=Nc2ccccc2)C(=Nc2ccccc2)N1c1ccccc1 | > 100 | > 100 | > 84.7 | > 69 | > 100 | > 100 | > 100 | > 100 | > 90.3 | > 79.1 | > 100 | > 100 | > 100 | – | > 100 µM | > 100 | > 100 | > 100 | > 100 | > 100
